Where a SMILES comes first, the peptide text is derived from it. [ ]: non-standard residue; d: D form. The star is where a group is joined. FITC = O=C1OC2(c3ccc(O)cc3Oc3cc(O)ccc32)c2ccc(NC(=S)*)cc21; Nle = CCCC[C@H](N)C(=O)O; Ahx = NCCCCCC(=O)O
Experiments:
Bcl-xL/BODIPY-BAK = biological target: T1, Bcl-xL/BODIPY-BAK (Homo sapiens, UniProt Q07817, DEL26-81); assay: Fluorescence anisotropy competition assay, inhibition of Bcl-xL/BODIPY-BAK interaction; format: binding
T1 construct: pET28a His-SUMO Bcl-xL (1-198, missing 26-81); His-SUMO (N, cleaved yes); made in house; host or cells: E. coli Rosetta 2
Experimental: (§1) To profile the binding behaviour of the constrained peptides we tested them in both competition displacement assays and direct binding assays. […] Of particular interest was the potential for the introduction of a constraint to have differential effects on protein specificity/selectivity. […] We next tested the constrained peptides in inhibition assays (Fig. 3a and b and Table 2). […]
(§2) constructs were over-expressed in the E. coli strain Rosetta 2. Cells were resuspended in 50mM TRIS pH 8.0, 500mM NaCl, 15mM Imidazole and lysed by sonication. The clarified lysate was applied to a 5ml HisTrap column equilibrated with 50mM TRIS pH 8.0, 500mM NaCl, 15mM Imidazole. The HisTrap was then washed with 10 CV of 50mM TRIS pH 8.0, 500mM NaCl, 15mM Imidazole followed by 10 CV 50mM TRIS pH 8.0, 500mM NaCl, 25mM Imidazole. The fusion proteins were eluted in 50mM TRIS pH 8.0, 500mM NaCl, 300mM Imidazole. TheHis-SUMO tag was removed in overnight in dialysis into 50mM TRIS pH 8.0, 250mM NaCl in the presence of Smt3 protease, Ulp1, overnight at 4°C. Uncleaved material and His-SUMO were removed by reapplication of the sample to a HisTrap in 50mM TRIS pH 8.0, 250mM NaCl and the flow through containing Mcl- […]
(§3) The proteins were then filtered before further purification on a Superdex 75 (GE […]
(§4) proteins were concentrated and stored at -80°C.
(§5) The assays were performed as detailed in 10, 11.
(§6) The buffers used for fluorescence anisotropy were either phosphate buffer (40 mM sodium phosphate, 200 mM sodium chloride, 0.02 mg ml-1 bovine serum albumin, pH 7.50) or Tris buffer (50 mM Tris, 140 mM sodium chloride, pH 7.50). Phosphate buffer was used for all competition assays […]
(§7) Assays were run in 96 or 384 well Optiplates and were scanned using a Perkin Elmer EnVisionTM 2103 MultiLabel plate reader. Fluorescein labelled peptides used an excitation and emission wavelength of 480 (30) nm and 535 (40) nm respectively (dichroic mirror 505 nm) whilst BODIPY labelled peptides used an excitation and emission wavelength of 531 (25) nm and 595 (60) nm respectively (dichroic mirror 555 nm), […]
(§8) Plates were read after 1 h […]
(§9) respectively. Plates were read after 1 h. […]
(§10) Processing of fluorescence anisotropy data
(§11) Fluorescence anisotropy data was processed using Microsoft Excel to calculate intensity, anisotropy […]
(§12) b (λ(rmax − r) + r − rmin) r = anisotropy, I = total intensity, P = perpendicular intensity, S = parallel intensity, Lb = fraction ligand bound, λ = Ibound/Iunbound , G = 1= instrumental factor. […]
(§13) the calculation of IC50 and EC50) or to the Kd model for the extraction of Kd values:
(§14) Where for the logisitic model; y = r = anisotropy, xo = mid-point of the curve between the rmax and rmin […]
(§15) For the Kd model; y = Lb*[FL], K = Kd, [FL] = Concentration of fluorescent ligand.

Mcl-1 = biological target: T2, Mcl-1 (Homo sapiens, UniProt Q07820); assay: Fluorescence anisotropy direct binding assay with Mcl-1
T2 construct: His-SUMO (N, cleaved yes); made in house; host or cells: E. coli Rosetta 2
Experimental: (§16) Direct titration experiments were also performed for FITC labelled BID peptides (Fig. 5). […]
as §2, §3, §4, §5, §6, §7, §8
(§17) respectively. Plates were read after 1 h.
(§18) For all variants of the labelled BID peptides (FITC-BID-WT,FITC-BID-MM, FITC-BID-DM and FITC-BID-Aib), the direct binding assays were performed in Tris Buffer in 384 well plates. In protein titrations, the protein concentration started from between 1-10 µM and was diluted over 24 points in a 3/4 dilution regime, with the concentration of the labelled peptide fixed at 25-100 nM. In the peptide titrations, the concentration of the labelled peptides started from 5 µM and were diluted in a 2/3 regime over 24 points, with the concentration of the protein fixed at 50 nM. Plates were read after 2 hours of incubation, and read again after 4 and 18 hours to ensure complete equilibration.
as §10, §11, §12, §13, §14, §15

Bcl-xL = biological target: T3, Bcl-xL (Homo sapiens, UniProt Q07817, DEL26-81); assay: Fluorescence anisotropy direct binding assay with Bcl-xL; conditions: for EC50: Bcl-xL titrated into FITC-labelled peptide (25-100 nM), 50 mM tris, 140 mM NaCl, pH 7.50, logistic fit
T3 construct: pET28a His-SUMO Bcl-xL (1-198, missing 26-81); made in house; host or cells: E. coli Rosetta 2
Experimental: as §16, §2, §3, §4, §5, §6, §7, §8, §17, §18, §10, §11, §12, §13, §14, §15

Mcl-1/FITC-NOXA-B = biological target: T4, Mcl-1/FITC-NOXA-B (Homo sapiens, UniProt Q07820); assay: Fluorescence anisotropy competition assay, inhibition of Mcl-1/FITC-NOXA-B interaction; format: binding; conditions: Table S1, unconstrained BH3 peptides; FA competition; Mcl-1 150 nM, FITC-NOXA-B 50 nM; phosphate buffer pH 7.50; read after 1 h
T4 construct: His-SUMO (N, cleaved yes); made in house; host or cells: E. coli Rosetta 2
Experimental: as §1, §2, §3, §4, §5, §6, §7, §8, §9, §10, §11, §12, §13, §14, §15

T2 sequence (Q07820 172-327): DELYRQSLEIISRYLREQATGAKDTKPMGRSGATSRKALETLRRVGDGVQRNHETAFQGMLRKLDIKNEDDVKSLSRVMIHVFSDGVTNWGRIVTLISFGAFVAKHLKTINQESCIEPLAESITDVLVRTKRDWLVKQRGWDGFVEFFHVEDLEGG
T1 sequence (Q07817 with tags, fused parts or gaps DEL26-81): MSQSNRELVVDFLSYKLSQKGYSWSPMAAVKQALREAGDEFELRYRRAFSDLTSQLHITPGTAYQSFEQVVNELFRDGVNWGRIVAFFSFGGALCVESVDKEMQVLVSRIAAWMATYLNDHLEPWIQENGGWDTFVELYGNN
T3 sequence (Q07817 with tags, fused parts or gaps DEL26-81): as above
T4 sequence (Q07820 172-327): as the sequence (Q07820 172-327) above

Row | Compound | IC50 (Bcl-xL/BODIPY-BAK) | EC50 (Mcl-1) | EC50 (Bcl-xL; FA direct binding) | other results
1 | CCCC[C@H](NC(=O)C(C)(C)NC(=O)[C@H](CC(=O)O)NC(=O)CNC(=O)[C@@H](NC(=O)C(C)(C)NC(=O)[C@H](C)NC(=O)[C@H](CC(C)C)NC(=O)[C@H](Cc1c[nH]cn1)NC(=O)[C@H](CCCNC(=N)N)NC(=O)[C@H](C)NC(=O)[C@@H](NC(=O)[C@H](CC(N)=O)NC(=O)[C@H](CCCNC(=N)N)NC(=O)[C@@H](NC(=O)[C@@H](NC(=O)[C@H](CC(=O)O)NC(=O)[C@H](CCC(=O)O)NC(C)=O)[C@@H](C)CC)[C@@H](C)CC)[C@@H](C)CC)C(C)C)C(=O)N[C@@H](CC(=O)O)C(=O)N[C@@H](CCCNC(=N)N)C(=O)N[C@@H](CO)C(=O)N[C@H](C(=O)N[C@@H](Cc1c[nH]c2ccccc12)C(N)=O)[C@@H](C)CC [BID-AIB] | 1140 ± 50 nM |  |  | 
2 | CC[C@H](C)[C@H](NC(C)=O)C(=O)N[C@@H](Cc1c[nH]c2ccccc12)C(=O)N[C@H](C(=O)N[C@@H](C)C(=O)N[C@@H](CCC(N)=O)C(=O)N[C@@H](CCC(=O)O)C(=O)N[C@@H](CC(C)C)C(=O)N[C@@H](CCCNC(=N)N)C(=O)N[C@@]1(C)CCCC=CCCC[C@@](C)(C(=O)N[C@@H](Cc2ccccc2)C(=O)N[C@@H](CC(N)=O)C(=O)N[C@@H](C)C(=O)N[C@@H](Cc2ccc(O)cc2)C(=O)N[C@@H](Cc2ccc(O)cc2)C(=O)N[C@@H](C)C(=O)N[C@@H](CCCNC(=N)N)C(=O)N[C@@H](CCCNC(=N)N)C(N)=O)NC(=O)[C@H](CC(=O)O)NC(=O)CNC(=O)[C@H]([C@@H](C)CC)NC1=O)[C@@H](C)CC [BIM-DM] | 4000 ± 620 nM |  |  | 
3 | CCCC[C@H](NC(=O)[C@]1(C)CCCC=CCCC[C@](C)(NC(=O)[C@H](C)NC(=O)[C@H](CC(C)C)NC(=O)[C@H](Cc2c[nH]cn2)NC(=O)[C@H](CCCNC(=N)N)NC(=O)[C@H](C)NC(=O)[C@@H](NC(=O)[C@H](CC(N)=O)NC(=O)[C@H](CCCNC(=N)N)NC(=O)[C@@H](NC(=O)[C@@H](NC(=O)[C@H](CC(=O)O)NC(=O)[C@H](CCC(=O)O)NC(=O)CCNC(=S)Nc2ccc3c(c2)C(=O)OC32c3ccc(O)cc3Oc3cc(O)ccc32)[C@@H](C)CC)[C@@H](C)CC)[C@@H](C)CC)C(=O)N[C@@H](C(C)C)C(=O)NCC(=O)N[C@@H](CC(=O)O)C(=O)N1)C(=O)N[C@@H](CC(=O)O)C(=O)N[C@@H](CCCNC(=N)N)C(=O)N[C@@H](CO)C(=O)N[C@H](C(=O)N[C@@H](Cc1c[nH]c2ccccc12)C(N)=O)[C@@H](C)CC [FITC-BID-DM] |  | 129 ± 3 nM | 159 ± 13 nM | 
4 | CCCC[C@H](NC(=O)[C@@H]1CCC/C=C\CCC[C@H](NC(=O)[C@H](C)NC(=O)[C@H](CC(C)C)NC(=O)[C@H](Cc2c[nH]cn2)NC(=O)[C@H](CCCNC(=N)N)NC(=O)[C@H](C)NC(=O)[C@@H](NC(=O)[C@H](CC(N)=O)NC(=O)[C@H](CCCNC(=N)N)NC(=O)[C@@H](NC(=O)[C@@H](NC(=O)[C@H](CC(=O)O)NC(=O)[C@H](CCC(=O)O)NC(=O)CCNC(=S)Nc2ccc3c(c2)C(=O)OC32c3ccc(O)cc3Oc3cc(O)ccc32)[C@@H](C)CC)[C@@H](C)CC)[C@@H](C)CC)C(=O)N[C@@H](C(C)C)C(=O)NCC(=O)N[C@@H](CC(=O)O)C(=O)N1)C(=O)N[C@@H](CC(=O)O)C(=O)N[C@@H](CCCNC(=N)N)C(=O)N[C@@H](CO)C(=O)N[C@H](C(=O)N[C@@H](Cc1c[nH]c2ccccc12)C(N)=O)[C@@H](C)CC [FITC-BID-MM] |  | 153 ± 12 nM | 186 ± 24 nM | 
5 | CCCC[C@H](NC(=O)[C@H](CO)NC(=O)[C@H](CC(=O)O)NC(=O)CNC(=O)[C@@H](NC(=O)[C@H](CCC(N)=O)NC(=O)[C@H](C)NC(=O)[C@H](CC(C)C)NC(=O)[C@H](Cc1c[nH]cn1)NC(=O)[C@H](CCCNC(=N)N)NC(=O)[C@H](C)NC(=O)[C@@H](NC(=O)[C@H](CC(N)=O)NC(=O)[C@H](CCCNC(=N)N)NC(=O)[C@@H](NC(=O)[C@@H](NC(=O)[C@H](CC(=O)O)NC(=O)[C@H](CCC(=O)O)NC(=O)CCCCCNC(=S)Nc1ccc2c(c1)C(=O)OC21c2ccc(O)cc2Oc2cc(O)ccc21)[C@@H](C)CC)[C@@H](C)CC)[C@@H](C)CC)C(C)C)C(=O)N[C@@H](CC(=O)O)C(=O)N[C@@H](CCCNC(=N)N)C(=O)N[C@@H](CO)C(=O)N[C@H](C(=O)N[C@@H](Cc1c[nH]c2ccccc12)C(N)=O)[C@@H](C)CC [FITC-BID-WT] ({FITC-Ahx}-EDIIRNIARHLAQVGDS[Nle]DRSIW-NH2) |  | 98 ± 8.9 nM | 79 ± 6 nM | Kd (Mcl-1): 50 ± 20 nM; Kd (Bcl-xL): 21 ± 6.6 nM
6 | CC[C@H](C)[C@H](NC(=O)[C@H](CCCNC(=N)N)NC(=O)[C@H](CCCNC(=N)N)NC(=O)[C@H](CC(C)C)NC(=O)[C@H](CCC(N)=O)NC(=O)[C@H](C)NC(=O)[C@H](CS)NC(=O)[C@H](CCC(=O)O)NC(=O)[C@H](CC(=O)O)NC(=O)[C@H](CCCCN)NC(=O)[C@H](CC(C)C)NC(=O)[C@H](CC(=O)O)NC(=O)[C@H](C)NC(=O)[C@@H]1CCCN1C(=O)CCCCCNC(=S)Nc1ccc2c(c1)C(=O)OC21c2ccc(O)cc2Oc2cc(O)ccc21)C(=O)NCC(=O)N[C@@H](CC(=O)O)C(=O)N[C@@H](CCCCN)C(=O)N[C@H](C(=O)N[C@@H](CC(N)=O)C(=O)N[C@@H](CC(C)C)C(N)=O)C(C)C [FITC-NOXA-B] |  |  |  | Kd (Mcl-1): 18.7 ± 0.9 nM; Bcl-xL Kd (Bcl-xL; FA direct binding, labelled unconstrained BH3 peptide, Kd model (Table S1), phosphate buffer for BODIPY-BAK and FITC-NOXA-B, Tris buffer for FITC-BID): no binding
7 | Ac-LWAAQRYGRELRRMSDEFEGSFDKL-NH2 [BAD, reference compound] | 140 ± 15 nM |  |  | Mcl-1/ FITC-NOXA-B IC50 (Mcl-1/FITC-NOXA-B): no inhibition

From paper PMC5618334, “Hydrocarbon constrained peptides – understanding preorganisation and binding affinity” (Chemical Science, 2016)
